Measured values from ChEMBL document CHEMBL1123032, “Antiparasitic agents. 6. Synthesis and anthelmintic activities of novel isothiocyanatophenyl-1,2,4-oxadiazoles” (1985).

Legend:
Type in all cases: functional
[1] = system: Rodentolepis nana; assay: Evaluation for antihelminthic activity against Hymenolepis nana when the dose was administered orally in mouse.
[2] = Anthelmintic activity against Nematospiroides dubius when the dose was administered orally in mouse.; parameters: concentration or dose not given beside the values
[3] = species on record: Mus musculus; assay: Compound was evaluated for antihelminthic activity in the diet against Nematospiroides dubius in mice at a concentration 0.013%
[4] = species on record: Mus musculus; assay: Compound was evaluated for antihelminthic activity in the diet against Nematospiroides dubius in mice at a concentration 0.025%
[5] = species on record: Mus musculus; assay: Compound was evaluated for antihelminthic activity in the diet against Nematospiroides dubius in mice at a concentration 0.1%
[6] = species on record: Mus musculus; assay: Compound was evaluated for antihelminthic activity in the diet against Nematospiroides dubius in mice at concentration 0.2%
[7] = species on record: Mus musculus; assay: Compound was evaluated for antihelminthic activity in the diet against Nematospiroides dubius in mice at a concentration 0.05%
[8] = system: Mus musculus; assay: Compound was evaluated for antihelminthic activity against Hymenolepis nana when the dose was administered subcutaneously in mouse
[9] = system: Mus musculus; assay: Compound was evaluated for antihelminthic activity against Hymenolepis nana when the dose was administered orally in mouse after destrobilization

Compound | Activity [1] | Activity [2] | other results
S=C=Nc1cc(-c2nc(-c3ccco3)no2)ccc1Cl | 100% | 0% | –
c1cc(-c2ncon2)ccn1 | 0% | 0% | –
S=C=Nc1ccc(-c2nc(-c3ccco3)no2)c(Cl)c1 | 100% | 0% | –
S=C=Nc1ccc(-c2nc(-c3ccccn3)no2)cc1 | 0% | 0% | –
Fc1ccc(-c2nc(-c3ccc(N=C=S)cc3)no2)cc1 | 0% | 42% | –
C(=N/c1ccc(-c2ncon2)cc1)/c1ccc[nH]1 | 0% | 0% | –
CC(=O)Oc1ccccc1-c1nc(-c2ccc(N=C=S)cc2)no1 | 0% | 0% | –
S=C=Nc1ccc(-c2nc(-c3cccs3)no2)cc1 | 33% | 22% | –
S=C=Nc1ccc(-c2nc(-c3ccc(Cl)cc3)no2)cc1 | 0% | 0% | –
CSc1nc(-c2ccccc2)no1 | – | – | Activity [3]: 39%; Activity [4]: 67%; Activity [5]: 94%; Activity [6]: 98%; Activity [7]: 96%
S=C=Nc1ccc(-c2noc(-c3cccs3)n2)cc1 | 25% | 57% | –
COC(=O)Nc1cc(-c2nc(-c3ccco3)no2)ccc1Cl | 0% | 0% | –
CCCCCCCCCCCc1nc(N)no1 | – | – | Activity [3]: 8%; Activity [4]: 35%; Activity [5]: 70%; Activity [6]: 93%; Activity [7]: 46%
Nc1ccc(-c2nc(-c3ccc(F)cc3)no2)cc1 | 0% | 18% | –
[O-][n+]1ccc(-c2ncon2)cc1 | 0% | 0% | –
C(=C\c1cccs1)/c1noc(/C=C/c2cccs2)n1 | 0% | 0% | –
CCOC(=O)c1nc(-c2ccc(N=C=S)cc2)no1 | 0% | 0% | –
Fc1ccc(-c2noc(-c3ccc(N=C=S)cc3)n2)cc1 | 0% | 0% | –
CCN(CC)/C(S)=N\c1cc(-c2nc(-c3ccco3)no2)ccc1Cl | 0% | 0% | –
Nc1ccc(-c2nc(-c3ccc(Cl)cc3)no2)cc1 | 0% | 0% | –

Compound | Activity [1] | Activity [2] | other results
S=C=Nc1ccc(-c2noc(-c3ccc(Cl)cc3)n2)cc1 | 0% | 0% | –
CCOC(=O)Cc1nc(-c2ccc(N=C=S)cc2)no1 | 0% | 0% | –
S=C=Nc1ccc(-c2noc(C3CC3)n2)cc1 | 0% | 0% | –
c1ccc(-c2nc(CCn3c(-c4cscn4)nc4ccccc43)no2)cc1 | 0% | 17% | –
CCN(CC)/C(S)=N\c1ccc(-c2nc(-c3ccco3)no2)c(Cl)c1 | 0% | 0% | –
S=C=Nc1cc(-c2nc(-c3ccco3)no2)ccc1Sc1ccccc1 | 0% | 0% | –
S=C=Nc1cccc(-c2noc(-c3ccco3)n2)c1 | 50% | 0% | –
Nc1ccc(-c2ncon2)cc1 | 0% | 0% | –
Clc1ccc(/C=N/c2ccc(-c3ncon3)cc2)cc1 | 0% | 0% | –
S=C=Nc1ccc(-c2noc(CCl)n2)cc1 | 0% | 38% | –
O=C(Nc1ccc(-c2nc(-c3ccco3)no2)c(Cl)c1)Oc1ccccc1 | 0% | 0% | –
S=C=Nc1ccc(-c2noc(-c3ccco3)n2)cc1 | 0% | 72% | –
S=C=Nc1ccc(-c2noc(C34CC5CC(CC(C5)C3)C4)n2)cc1 | 0% | 0% | –
c1ccc(-c2nc(CCn3cnc4ccccc43)no2)cc1 | 0% | 0% | –
Clc1ccc(-c2ncon2)cc1 | – | – | Activity [3]: 36%; Activity [4]: 61%; Activity [5]: 100%; Activity [7]: 95%
O=C(Nc1cc(-c2nc(-c3ccco3)no2)ccc1Cl)Oc1ccccc1 | 0% | 0% | –
O=[N+]([O-])c1cc(/C=N/c2ccc(-c3ncon3)cc2)ccc1Cl | 0% | 0% | –
O=C(Nc1ccc(-c2nc(-c3ccco3)no2)c(Cl)c1)OCC(Cl)(Cl)Cl | 0% | 0% | –
CN1CCN(Cc2nc(-c3ccc(N=C=S)cc3)no2)CC1 | 0% | 0% | –
Nc1ccc(-c2nc(-c3ccco3)no2)c(Cl)c1 | 0% | 0% | –

Compound | Activity [1] | Activity [2] | other results
CCc1nc(-c2ccc(N=C=S)cc2)no1 | 0% | 30% | –
COc1cc(-c2nc(-c3ccc(N=C=S)cc3)no2)cc(OC)c1OC | 0% | 0% | –
O=C(Nc1ccc(-c2ncon2)cc1)Oc1ccccc1 | 0% | 0% | –
S=C=Nc1cccc(-c2ncon2)c1 | 0% | 0% | –
O=[N+]([O-])CCc1nc(-c2ccccc2)no1 | 0% | 0% | –
S=C=Nc1ccc(-c2ncon2)cc1 | – | 100% | Activity [3]: 48%; Activity [4]: 82%; Activity [5]: 100%; Activity [6]: 100%; Activity [8]: 100%; Activity [9]: 0%; Activity [7]: 96%
COC(=O)Nc1ccc(-c2nc(-c3ccco3)no2)c(Cl)c1 | 0% | 0% | –
S=C=Nc1ccc(-c2noc(C3CCCCC3)n2)cc1 | 25% | 0% | –
c1ccc2[nH]c(-c3cscn3)nc2c1 [THIABENDAZOLE] | – | – | Activity [3]: 47%; Activity [4]: 81%; Activity [5]: 100%; Activity [6]: 100%; Activity [7]: 94%
O=C(Nc1cc(-c2nc(-c3ccco3)no2)ccc1Cl)OCC(Cl)(Cl)Cl | 0% | 0% | –
S=C=Nc1cc(-c2ncon2)ccc1Cl | 0% | 0% | –
S=C=Nc1ccc(-c2noc(-c3ccccn3)n2)cc1 | 0% | 0% | –
S=C=Nc1ccc(-c2noc(CCc3ccccc3)n2)cc1 | 0% | 0% | –
O=[N+]([O-])c1ccc2ncn(CCc3noc(-c4ccccc4)n3)c2c1 | 0% | 0% | –
COCCc1nc(-c2ccc(N=C=S)cc2)no1 | 0% | 0% | –
S=C=Nc1ccc(-c2nc(-c3ccco3)no2)cc1 | 100% | 90% | –
Nc1cc(-c2nc(-c3ccco3)no2)ccc1Cl | 0% | 0% | –
O=[N+]([O-])c1ccc(/C=N\c2ccc(-c3ncon3)cc2)o1 | 0% | 0% | –
